The text below walks through data of patent US7309484B2, “Compositions and methods for screening antibacterial compounds” (priority 2003, dated 2007).

Converted amounts (≈) assume the structure as drawn. Where two headings read alike, the source gives them in different places. Bridge positions count the residues as written; N and C are the ends. Square brackets hold non-standard residues; d marks the D form. Peptide text beside a SMILES is read from it. * marks the point of attachment. Ileψ(thiazoline)Cys = CC[C@H](C)[C@H](N)C1=N[C@H](C(=O)*)CS1; dOrn = NCCC[C@@H](N)C(=O)O

Format in all cases: cell-based, Bacillus subtilis
Assay [1] deals with B. subtilis CU1065 and isogenic deletion mutants. Put plainly: Minimal inhibitory concentration (MIC), microtiter-plate assay. The following applies: for MIC: Bacillus subtilis. The protocol:
Since B. subtilis is closely related to the bacitracin-producing strains, it seemed likely that a similar system as described for B. licheniformis could exist in CU1065. The identification of two loci encoding ABC transporters that are under the bacitracin-inducible control of a two-component system supported this hypothesis. […] All strains were grown in microtiter-plates for 4 hours after dilution into LB medium containing the indicated concentrations of bacitracin. The experiment was done in triplicate and a representative result is shown. Strains used were: CU1065 (black squares), ‘bacR’ (HB0927, open diamonds), ‘bacAB’ (HB0928, black diamonds), ‘sigM’ (HB0031, open circles), ‘bcrC’ HB0106 (closed circles), ‘bcrC/bacAB’ (HB0937, black triangle). Compare also with Table 1.
Determination of the minimal inhibitory concentration (MIC): MIC-assays were performed in microtiter plates using a ‘Tecan Spectra Rainbow’ microtiter plate reader. […] Tenfold dilution of these cultures were inoculated in a total volume of 200 μl/well with increasing quantities of bacitracin, ranging from 0.01 to 1000 μg/mL (final concentration). The plates were incubated at 37° C. and the O.D.600 was read after 4 hours, when cultures had reached their final cell density. All experiments were performed in triplicate.

Assay [2] relates to liaI expression (liaI::pMUTIN lacZ fusion, strain BFS2470; also liaH::pMUTIN, BFS2469). Put plainly: Disk-diffusion assay, blue ring on X-Gal plates. On Disk-diffusion assay: key: −: no induction; +: induction of yvql expression. The text has this:
The pMUTIN-insertion results in a disruption of the targeted gene and generates a transcriptional fusion to lacZ thereby allowing detection of both antibiotic sensitivity (as defined by the zone of inhibition around the disk) and inducibility (by the formation of a blue ring at the edge of the zone of inhibition) (Cao et al., 2002, Mol Microbiol. 45: 1267-1276, the entire teaching of which is incorporated herein). The disruption of liaI and liaH had no effect on the sensitivity of the mutants to any of the antibiotics tested. […] Equivalent levels of induction were also observed with the PliaI-74-cat-lacZ fragment (in HB0950), albeit with lower fold-changes (See, Table 2). While the mode of action is different for these antibiotics, all four interfere with the lipid II cycle, essential for the biosynthesis of cell envelope polymers (Lazar et al., 2002, Curr. Opin. Chem. Biol. 6: 786-93).
PliaI induction assays: Screening for liaI induction was done by disk diffusion assay essentially as described (Cai, S. J., and M. Inouye, 2002, J Biol Chem 277:24155-61). B. subtilis strains were inoculated from a fresh overnight LB agar plate and grown to mid-log phase (OD600 ˜0.45) at 37 YC with shaking. 20 μl of the culture was mixed with 3 ml of 0.7% soft LB agar (containing 40 μg of X-Gal per plate) and poured onto the bottom agar. After cooling and drying of the plates (20 min at 37 YC), filter paper disks (6 mm diameter) carrying 5 μl of stock solution (antibiotics normally 100 mg/ml; lysozyme 10 mg/ml; tunicamycin, surfactants, uncouplers 5 mg/ml each; inhibitors of protein biosynthesis as given in the media and growth conditions section) were placed on top of the agar. The plates were incubated at 37 YC overnight. After 12-24 h incubation, the plates were scored for the appearance of a blue ring at or near the edge of the zone of growth inhibition produced by the diffusion of the antibiotics from the filter disk.

The test system of assay [3] is liaH expression (liaH::pMUTIN, strain BFS2469). Put plainly: Quantitative β-galactosidase assay, strain BFS2469. The conditions noted are these: bacitracin 100 μg/mL, 30 minutes.
Experimental: Specifically, cultures of B. subtilis strain BFS2469 (liaH::pMUTIN) and BFS2470 (liaI::pMUTIN) were grown in LB medium to midlog phase, 2 mL for the un-induced control sample were harvested, and the remaining culture was induced with the three antibiotics for 30 minutes, before the cells of the induced sample were harvested. All samples were taken in duplicate from two independent cultures and the standard deviation is indicated by error bars.
Measurement of induction by β-galactosidase assays: Cells were inoculated from fresh overnight LB-plates and grown in LB-medium at 37° C. with aeration until they reached an O.D.600=0.45. 2 mL of cultures were harvested (un-induced control) and the cell pellets were shock frozen and kept at −70° C. The cultures were induced by addition of antibiotics to a final concentration of: bacitracin (100 μg/mL), tunicamycin (50 μg/mL) or vancomycin (2 μg/mL) and incubated for additional 30 min at 37° C. 2 mL of the cultures were harvested as described above (induced sample). The pellets were re-suspended in 1 mL of working buffer and assayed for β-galactosidase activity as described with normalization to cell density (Miller, 1972, the entire teaching of which is incorporated herein by reference).

For the compound `CC[C@H](C)[C@H](N)C1=N[C@H](C(=O)N[C@@H](CC(C)C)C(=O)N[C@H](CCC(=O)O)C(=O)N[C@H](C(=O)N[C@H]2CCCCNC(=O)[C@H](CC(N)=O)NC(=O)[C@@H](CC(=O)O)NC(=O)[C@H](Cc3cnc[nH]3)NC(=O)[C@@H](Cc3ccccc3)NC(=O)[C@H]([C@@H](C)CC)NC(=O)[C@@H](CCCN)NC2=O)[C@@H](C)CC)CS1` [Bacitracin] ({Ileψ(thiazoline)Cys}-L[dE]IK[dOrn]I[dF]H[dD]N; lactam 4-C), the MIC in assay [1] (4 h, read-out: Bacitracin MIC, mutant in bacAB (ytsCD), LB, 4 hours) worked out at 10 µg/mL (≈ 7.03 µM); in assay [1] (4 h, read-out: Bacitracin MIC, mutant in bcrC, LB, 4 hours), 25 µg/mL (≈ 17.6 µM); in assay [1] (read-out: bacitracin-resistance (MIC), bcrC/bceAB double mutant (HB0937)) it was 2.5 µg/mL (≈ 1.76 µM); in assay [1] (read-out: bacitracin-resistance (MIC), wild type strain (CU1065)) it was 500 µg/mL (≈ 351 µM). In addition, the “reduction in MIC compared to CU1065” value in assay [1] (bceAB deletion) and in assay [1] (bceR deletion) was 50 fold in each case. In addition, in assay [1] (bcrC/bceAB double mutant), the “decrease of bacitracin-resistance compared to the wild type strain” value is reported as 200 fold. Also, the disk-diffusion assay result in assay [2] (qualitative screen of β-Galactosidase activity, blue ring at edge of zone of inhibition, LB plates with X-Gal, strain BFS2470) was “+”. Moreover, the “induction of liaI / liaH expression, in words” value in assay [2] (strains BFS2469 and BFS2470) was “induced”. Moreover, the “fold increase in liaH expression” value in assay [3] was determined as 90 fold.
